Data as given in US10413520B2, “Oral pharmacological composition including 5-{4-(amino sulfonyl)phenyl}-2,2-dimethyl-4-(3-fluorophenyl)-3(2H)-furanone having crystalline structure with excellent stability” (CRYSTALGENOMICS, INC., priority 2014, dated 2019).
Read-outs that look alike come from different tables or passages of the source.

Assays:
[1] = Particle size analysis by laser diffraction; type: physicochemical; details: dry module, 2 bar
Method: The particle sizes of the crystalline form of Comparative Examples 1 and 2 and Example 39 were analyzed using a laser diffraction-based particle size analyzer (Mastersizer 2000®, Malvern). After each sample was fed into a dry module (Scirocco 2000®, Malvern) at a pressure of 2 bar, the 50% volume particle diameter (d(0.5)) and 90% volume particle diameter (d(0.9)) of the particles were measured.

[2] = Solubility test in solvents, up to 200 vol (Table 1); type: physicochemical; details: organic solvent or mixture, thermodynamic from solid, about 5 mg compound, solvent named in the row (c1)
From the text: Then, the solvents were evaporated at room temperature for drying and XRPD patterns of the obtained dried materials were confirmed.

[3] = Dissolution rates of crystalline form with different particle sizes; type: physicochemical; details: 2 mg per hard capsule, 900 ml pH 1.2 and pH 6.8 solutions, 100 rpm, 37±0.5° C., 3 hr
Method: In this example, the dissolution rates of the crystalline form with different particle sizes were examined. The particles of Comparative Examples 1 and 2 and Example 39 were filled in different hard capsules (2 mg per capsule) and were then eluted in 900 ml of a pH 1.2 solution and 900 ml of a pH 6.8 solution at a revolution number of 100 rpm and a temperature of 37±0.5° C. for 3 hr. The eluted particles were analyzed under the same HPLC conditions as described in Test Example 1.

[4] = Temperature stability of crystalline form A in capsules; type: physicochemical; details: PTP, 60 ± 5% RH
Method: The retention time of the major peak, the amounts of related substances, and the compound content were analyzed by HPLC under the following conditions.
<HPLC Conditions for Analysis of Related Substances>
Column: Hypurity C18, 250×4.6 mm, […] or its equivalent column
Detector: UV absorption spectrometer (measured at 241 nm)
(§1) Column temperature: 30° C.
Mobile phase: A—acetonitrile, B—0.1% v/v trifluoroacetic acid (TFA) in water
<HPLC Conditions for Analysis of the Compound Content>
(§2) Detector: UV absorption spectrometer (measured at 325 nm)
(§3) Mobile phase: A—acetonitrile, B—water, A:B=60:40, v/v %
Diluent: water:acetonitrile=50:50, v/v %

[5] = Humidity stability of crystalline form A in capsules; type: physicochemical; details: PTP, 25 ± 2° C., 90 ± 5% RH
Method: (§4) The crystalline form A was filled in a hard capsule (2 mg per capsule) and stored under the severe humidity conditions shown in Table 10. Thereafter, the appearance of the crystalline form A, the retention time of the major peak, the amounts (%) of related substances, and the compound content were analyzed.

[6] = Light stability of crystalline form A in capsules; type: physicochemical; details: for Amounts of related substances (each) / Amounts of related substances (total) / Appearance / Content / Peak retention time confirmation: PTP, light stress (white and UV florescent lamp)
Method: as §4, with “light stress” for “severe humidity”, “11.” for “10.”

[7] = Room temperature storage of anhydrous form; type: physicochemical; details: stored at room temperature for a long period
Method: Then, about 18 g of the compound was dissolved in 200 mL of acetone. The completely dissolved solution was vacuum dried at 40° C. using a rotary evaporator (Buchi Rota Vapour R200). The compound thus obtained was a sponge-like solid. When the compound was stored at room temperature for a long period, the structure of the crystalline form A was gradually formed, and related substances were created due to hygroscopic property.

[8] = Related substance creation under stress conditions (HPLC); type: physicochemical; details: stress conditions 60±2° C. and 85±5% (RH), sealed glass vial; for Total related substance: after 4 week storage
Method: Each raw material was sealed in a glass vial and sampled at different elapsed time. The samples were evaluated by HPLC analysis. […] Based on the above results, the crystalline forms A and G were selected and used for the study for manufacturing an oral pharmacological composition.

[9] = Storage stability of crystalline forms (appearance, XRD, related substances); type: physicochemical; details: 25° C./97% RH and 40° C./75% RH, 7 days; for State of crystalline form (XRD): hard capsules; for Appearance and crystalline structures / Creation of related substances: uncapped glass vial
Method: Additionally, the crystalline forms of the compound of Formula 1 were evaluated for storage stability. The crystalline form A of Preparative […] conditions (25° C./97% RH) and accelerated storage conditions (40° C./75% RH) for 7 days. X-ray diffraction analysis was performed in accordance with the same method as described in Preparative Examples 5 and 6.

[10] = Dissolution rates of crystalline forms in hard capsules; type: physicochemical; details: 900 ml pH 1.2 solution, 50 and 100 rpm, 37±0.5° C., 2 hr
Method: In this example, the dissolution rates of the crystalline forms of the compound of Formula 1 were examined. Specifically, each of the crystalline form A of Preparative Example 5 and the crystalline form G of Preparative Example 6 was filled in hard capsules and was then eluted in 900 ml of a pH 1.2 solution at different revolution numbers of 50 and 100 rpm and a temperature of 37±0.5° C. for 2 hr. The eluted particles were analyzed under the following HPLC conditions:
Column: Hypurity C18, 250×4.6 mm, 5 μm or its equivalent column
as §2, §1, §3

[11] = Pharmacokinetic properties of crystalline forms after oral administration; type: in vivo; details: single oral dose, male SD rats; for AUC / Cmax / Tmax: about 5 mg in 10 mL 0.5% methylcellulose, 10 mL/Kg
Method: The pharmacokinetic properties of the different crystalline forms of the compound of Formula 1 were analyzed in vivo. About 5 mg of each of the crystalline form A of Preparative Example 5 and the crystalline form G of Preparative Example 6 was suspended in 10 mL of a 0.5% methylcellulose solution to produce a formulation for oral use. Then, 6 week old male SD rats (Orient Bio. Inc., Korea) were divided into two groups. About 3 mL (10 mL/Kg) of the oral formulation was once administered orally to each rat and blood samples were drawn from the rat at predetermined intervals of 0.167, 0.5, 1.0, 2.0, 4.0, 6.0, 8.0, and 24.0 hr. The blood samples were used to analyze the pharmacokinetic parameters of the crystalline form.
The pharmacokinetic parameters of the crystalline forms were analyzed using Waters Quattro premier XE 2795 Alliance HT (Waters) under the following conditions: flow rate=0.25 ml/min, column temperature=40° C., injection volume=7 μL, and mobile phase=A: 1 mM ammonium acetate & 0.1% acetic acid (35%), B: ACN (65%). Linearity was established with 8 different standard concentrations.
The oral formulations including the compound of Preparative Example 5 and the compound of Preparative Example 6, respectively, were administered to the different rats.

[12] = Solubility test in 28 solvents at r.t. and 50° C. (Table 2)
Method: When dissolution was incomplete during the experiment, the solution was maturated by repeatedly heating to 50° C. and then cooling to room temperature 8 times for 24 hr in an incubation chamber. After maturation, the solvent was dried at room temperature.
During the experiment, the completely dissolved solution was stored under a cold condition (4° C.) for 24 hr to allow crystal formation, recovered and dried at room temperature. Then XRPD analysis was performed.

CC1(C)OC(c2ccc(S(N)(=O)=O)cc2)=C(c2cccc(F)c2)C1=O [Comparative Example 1]
Particle size d(0.1) [1]: 40.55 μm
Particle size d(0.5), 50% volume particle diameter [1]: 136.49 μm
Particle size d(0.9), 90% volume particle diameter [1]: 527.04 μm

CC1(C)OC(c2ccc(S(N)(=O)=O)cc2)=C(c2cccc(F)c2)C1=O [Comparative Example 2]
Particle size d(0.1) [1]: 5.15 μm
Particle size d(0.5), 50% volume particle diameter [1]: 32.17 μm
Particle size d(0.9), 90% volume particle diameter [1]: 83.54 μm

CC1(C)OC(c2ccc(S(N)(=O)=O)cc2)=C(c2cccc(F)c2)C1=O [Example 4]
solubility ([2]; read-out: Solubility at 100 vol (500 uL)): > 10000 µg/mL

CC1(C)OC(c2ccc(S(N)(=O)=O)cc2)=C(c2cccc(F)c2)C1=O [Example 5]
solubility ([2]; read-out: Solubility at 200 vol (1000 uL)): < 5000 µg/mL

CC1(C)OC(c2ccc(S(N)(=O)=O)cc2)=C(c2cccc(F)c2)C1=O [Example 39]
Particle size d(0.1) [1]: 1.75 μm
Particle size d(0.5), 50% volume particle diameter [1]: 5.98 μm
Particle size d(0.9), 90% volume particle diameter [1]: 15.23 μm
Dissolution rate [3]: higher dissolution rates than the particles of Comparative Examples 1 and 2
Amounts of related substances (each) ([4]; 60 ± 2° C., 24 hr): 0.0%,
Amounts of related substances (total) ([4]; 60 ± 2° C., 24 hr): 0.0%
Appearance ([4]; 60 ± 2° C., 24 hr): Unchanged
Content ([4]; 60 ± 2° C., 24 hr): 103.0%
Peak retention time confirmation ([4]; 60 ± 2° C., 24 hr): The same
Amounts of related substances (each) ([4]; 80 ± 2° C., 24 hr): 0.0%,
Amounts of related substances (total) ([4]; 80 ± 2° C., 24 hr): 0.0%
Appearance ([4]; 80 ± 2° C., 24 hr): Unchanged
Content ([4]; 80 ± 2° C., 24 hr): 101.5%
Peak retention time confirmation ([4]; 80 ± 2° C., 24 hr): The same
Amounts of related substances (each) ([4]; 90 ± 2° C., 24 hr): 0.0%,
Amounts of related substances (total) ([4]; 90 ± 2° C., 24 hr): 0.0%
Appearance ([4]; 90 ± 2° C., 24 hr): Unchanged
Content ([4]; 90 ± 2° C., 24 hr): 101.8%
Peak retention time confirmation ([4]; 90 ± 2° C., 24 hr): The same
Amounts of related substances (each) ([4]; 90 ± 2° C., 72 hr): 0.1%,
Amounts of related substances (total) ([4]; 90 ± 2° C., 72 hr): 0.1%
Appearance ([4]; 90 ± 2° C., 72 hr): Unchanged
Content ([4]; 90 ± 2° C., 72 hr): 101.1%
Peak retention time confirmation ([4]; 90 ± 2° C., 72 hr): The same
Amounts of related substances (each) ([5]; 1 week): 0.1%
Amounts of related substances (total) ([5]; 1 week): 0.1%,
Appearance ([5]; 1 week): Unchanged
Content ([5]; 1 week): 103.1%
Peak retention time confirmation ([5]; 1 week): The same
Amounts of related substances (each) ([5]; 2 weeks): 0.1%, 0.1%
Amounts of related substances (total) ([5]; 2 weeks): 0.1%, 0.1%
Appearance ([5]; 2 weeks): Unchanged
Content ([5]; 2 weeks): 103.1%
Peak retention time confirmation ([5]; 2 weeks): The same
Amounts of related substances (each) ([5]; 4 weeks): 0.1%,
Amounts of related substances (total) ([5]; 4 weeks): 0.1%
Appearance ([5]; 4 weeks): Unchanged
Content ([5]; 4 weeks): 101.2%
Peak retention time confirmation ([5]; 4 weeks): The same
Amounts of related substances (each) ([6]; 1 week): 1.7%
Amounts of related substances (total) ([6]; 1 week): 3.0%
Appearance ([6]; 1 week): Unchanged
Content ([6]; 1 week): 103.4%
Peak retention time confirmation ([6]; 1 week): The same
Amounts of related substances (each) ([6]; 2 weeks): 2.1%
Amounts of related substances (total) ([6]; 2 weeks): 3.7%
Appearance ([6]; 2 weeks): Unchanged
Content ([6]; 2 weeks): 103.1%
Peak retention time confirmation ([6]; 2 weeks): The same
Amounts of related substances (each) ([6]; 4 weeks): 2.3%
Amounts of related substances (total) ([6]; 4 weeks): 4.1%
Appearance ([6]; 4 weeks): Unchanged
Content ([6]; 4 weeks): 99.1%
Peak retention time confirmation ([6]; 4 weeks): The same

CC1(C)OC(c2ccc(S(N)(=O)=O)cc2)=C(c2cccc(F)c2)C1=O [Preparation Example 2]
Physicochemical stability [7]: physicochemically unstable

CC1(C)OC(c2ccc(S(N)(=O)=O)cc2)=C(c2cccc(F)c2)C1=O [Preparative Example 5]
Total related substance [8]: about 0.1%
State of crystalline form (XRD) [9]: maintained stable
Appearance and crystalline structures [9]: remained unchanged
Creation of related substances [9]: rarely observed
Dissolution rate [10]: higher dissolution rates than the crystalline form G
AUC ([11]; male, SD, rat, blood, po, 5 mg, read-out: AUC): 2320 ng·h/mL
Cmax ([11]; male, SD, rat, blood, po, 5 mg, read-out: Cmax): 751 ng/mL
Tmax ([11]; male, SD, rat, blood, po, 5 mg, read-out: Tmax): 30 min
In vivo dissolution rates (blood levels over time) [11]: higher in vivo dissolution rates than the crystalline form G of Preparative Example 6
Time until related substances exceeded the criteria ([6]; light stress storage conditions): ≤ 7 days

CC1(C)OC(c2ccc(S(N)(=O)=O)cc2)=C(c2cccc(F)c2)C1=O [Preparative Example 6]
Total related substance [8]: about 0.1%
State of crystalline form (XRD) [9]: maintained stable
Appearance and crystalline structures [9]: remained unchanged
Creation of related substances [9]: rarely observed
AUC [11]: 2416.835 ng·h/mL
Cmax [11]: 513.614 ng/mL
Tmax [11]: 60 min

CC1(C)OC(c2ccc(S(N)(=O)=O)cc2)=C(c2cccc(F)c2)C1=O [compound of Formula 1]
Dissolution in solvent volume up to 100 times, heated up to 50° C. ([12]; IPA, Toluene, TBME, Diethyl ether, Heptane, water): not dissolved
Dissolution in solvent volume 10 times the raw material ([12]; acetone, 2-butanone, THF, DMSO, Methylpyrrolidine, Dioxane, acetonitrile aqueous solution, NMP, 1-methoxy-IPA): dissolved
Dissolution in solvent volume 20 times to 40 times the raw material ([12]; ethyl acetate, acetonitrile, MIBK, DCM, Nitromethane): dissolved

CC1(C)OC(c2ccc(S(N)(=O)=O)cc2)=C(c2cccc(F)c2)C1=O [crystalline form B]
Level of total related substance over time [8]: rapidly increased
